Publication PMC11062894, “Protein-based bandpass filters for controlling cellular signaling with chemical inputs” (Nature Chemical Biology, 2023)
Several values for one entry are separate records, joined by “and”; a condition that tells them apart may be missing. Equal entries are not always repeated.

Test system: GEMS receptors with CBPvene (Bcl2–LD3 and Bcl2high variants), STAT3-driven SEAP in HEK293T cells
Assay: GEMS SEAP reporter assay, CBPvene (Bcl2high, LD3-v and Bcl2-v variants) with venetoclax
Format: cell-based
[1] = CBPVene-v4, Venetoclax 10000 nM
[2] = CBPVene-v4-Bcl2v2, Venetoclax 1 nM
[3] = CBPVene-v4-Bcl2v2, Venetoclax 3.16 nM
[4] = CBPVene-v4-Bcl2v2, Venetoclax 10 nM
[5] = CBPVene-v4-Bcl2v2, Venetoclax 31.6 nM
[6] = CBPVene-v4-Bcl2v2, Venetoclax 100 nM
[7] = CBPVene-v4-Bcl2v2, Venetoclax 316 nM
[8] = CBPVene-v4-Bcl2v2, Venetoclax 1000 nM
[9] = CBPVene-v4-Bcl2v2, Venetoclax 3160 nM
[10] = CBPVene-v4-Bcl2v2, Venetoclax 10000 nM
[11] = CBPVene-v4-LD3v1, Venetoclax 1 nM
[12] = CBPVene-v4-LD3v1, Venetoclax 3.16 nM

In the case of `CC1(C)CCC(CN2CCN(c3ccc(C(=O)NS(=O)(=O)c4ccc(NCC5CCOCC5)c([N+](=O)[O-])c4)c(Oc4cnc5[nH]ccc5c4)c3)CC2)=C(c2ccc(Cl)cc2)C1` [Venetoclax], the “Raw data of Independent repeat of CBPVene-v4 vs CBPVene-v4-LD3v1” value (shortened to “Raw data … vs CBPVene-v4-LD3v1”) (CBPVene-v4, Venetoclax 0.01 nM) is reported as 35.2999 and 34.8178 and 35.7656, the “Normalized data Figure 5c” value (CBPVene-v4, Venetoclax 1 nM) is reported as 4.2459 and 4.713 and 4.374 and the “Normalized data Figure 5f” value (CBPVene-v4, Venetoclax 1 nM) is reported as 3.9625 and 4.391 and 3.175. The “Raw data Figure 5c” value (CBPVene-v4, Venetoclax 1 nM) was 40.3634 and 39.0365 and 35.7348, the “Raw data Figure 5f” value (CBPVene-v4, Venetoclax 1 nM) was 25.8055 and 26.2397 and 18.4029 and the “Raw data … vs CBPVene-v4-LD3v1” value (CBPVene-v4, Venetoclax 1 nM) was 38.7674 and 35.097 and 34.871. The “Normalized data Figure 5c” value (CBPVene-v4, Venetoclax 3.16 nM) was 3.941 and 4.809 and 4.361, the “Normalized data Figure 5f” value (CBPVene-v4, Venetoclax 3.16 nM) was 3.622 and 4.227 and 3.164 and the “Raw data Figure 5c” value (CBPVene-v4, Venetoclax 3.16 nM) was 37.466 and 39.8351 and 35.629. For the same compound, the “Raw data Figure 5f” value (CBPVene-v4, Venetoclax 3.16 nM) was 23.589 and 25.2624 and 18.3382, the “Raw data … vs CBPVene-v4-LD3v1” value (CBPVene-v4, Venetoclax 3.16 nM) was 37.9892 and 34.5814 and 35.8384 and the “Normalized data Figure 5c” value (CBPVene-v4, Venetoclax 10 nM) was 8.251 and 9.2534 and 8.61. For the same compound, the “Normalized data Figure 5f” value (CBPVene-v4, Venetoclax 10 nM) was 5.138 and 5.367 and 4.508, the “Raw data Figure 5c” value (CBPVene-v4, Venetoclax 10 nM) was 78.4344 and 76.6512 and 70.3479 and the “Raw data Figure 5f” value (CBPVene-v4, Venetoclax 10 nM) was 33.4586 and 32.0727 and 26.1315. The “Raw data … vs CBPVene-v4-LD3v1” value (CBPVene-v4, Venetoclax 10 nM) was 40.747 and 40.7067 and 37.4113, the “Normalized data Figure 5c” value (CBPVene-v4, Venetoclax 31.6 nM) was 23.4087 and 23.5513 and 23.3621 and the “Normalized data Figure 5f” value (CBPVene-v4, Venetoclax 31.6 nM) was 15.4727 and 18.6639 and 9.968. The “Raw data Figure 5c” value (CBPVene-v4, Venetoclax 31.6 nM) was 222.533 and 195.089 and 190.881, the “Raw data Figure 5f” value (CBPVene-v4, Venetoclax 31.6 nM) was 100.765 and 111.541 and 57.7785 and the “Raw data … vs CBPVene-v4-LD3v1” value (CBPVene-v4, Venetoclax 31.6 nM) was 75.7769 and 63.5945 and 72.9306. For the same compound, the “Normalized data Figure 5c” value (CBPVene-v4, Venetoclax 100 nM) was 64.2766 and 73.1224 and 63.32, the “Normalized data Figure 5f” value (CBPVene-v4, Venetoclax 100 nM) was 42.576 and 45.1446 and 47.2654 and the “Raw data Figure 5c” value (CBPVene-v4, Venetoclax 100 nM) was 611.042 and 605.715 and 517.36. For the same compound, the “Raw data Figure 5f” value (CBPVene-v4, Venetoclax 100 nM) was 277.273 and 269.798 and 273.956, the “Raw data … vs CBPVene-v4-LD3v1” value (CBPVene-v4, Venetoclax 100 nM) was 129.31 and 117.373 and 126.839 and the “Normalized data Figure 5c” value (CBPVene-v4, Venetoclax 316 nM) was 100. The “Normalized data Figure 5f” value (CBPVene-v4, Venetoclax 316 nM) was 68.7371 and 83.2998 and 76.2167, the “Raw data Figure 5c” value (CBPVene-v4, Venetoclax 316 nM) was 950.644 and 828.357 and 817.055 and the “Raw data Figure 5f” value (CBPVene-v4, Venetoclax 316 nM) was 447.645 and 497.825 and 441.762. The “Raw data … vs CBPVene-v4-LD3v1” value (CBPVene-v4, Venetoclax 316 nM) was 169.324 and 158.179 and 180.661, the “Normalized data Figure 5c” value (CBPVene-v4, Venetoclax 1000 nM) was 99.3535 and 99.2484 and 89.7215 and the “Normalized data Figure 5f” value (CBPVene-v4, Venetoclax 1000 nM) was 100. For the same compound, the “Raw data Figure 5c” value (CBPVene-v4, Venetoclax 1000 nM) was 944.498 and 822.131 and 733.074, the “Raw data Figure 5f” value (CBPVene-v4, Venetoclax 1000 nM) was 651.243 and 597.631 and 579.613 and the “Raw data … vs CBPVene-v4-LD3v1” value (CBPVene-v4, Venetoclax 1000 nM) was 146.952 and 139.539 and 151.905. The “Normalized data Figure 5c” value (CBPVene-v4, Venetoclax 3160 nM) was 79.357 and 89.4953 and 82.0208, the “Normalized data Figure 5f” value (CBPVene-v4, Venetoclax 3160 nM) was 65.0047 and 75.3611 and 76.07 and the “Raw data Figure 5c” value (CBPVene-v4, Venetoclax 3160 nM) was 754.403 and 741.34 and 670.156. For the same compound, the “Raw data Figure 5f” value (CBPVene-v4, Venetoclax 3160 nM) was 423.338 and 450.382 and 440.912, the “Raw data … vs CBPVene-v4-LD3v1” value (CBPVene-v4, Venetoclax 3160 nM) was 80.4284 and 77.0562 and 76.9119 and the “Normalized data Figure 5c” value [1] was 37.7692 and 41.8946 and 33.9505. For the same compound, the “Normalized data Figure 5f” value [1] was 42.6019 and 46.7992 and 47.9312, the “Raw data Figure 5c” value [1] was 359.051 and 347.036 and 277.394 and the “Raw data Figure 5f” value [1] was 277.442 and 279.687 and 277.816. The “Raw data … vs CBPVene-v4-LD3v1” value [1] was 30.3195 and 25.7432 and 26.899, the “Normalized data Figure 5f” value [2] was 10.7266 and 9.876 and 10.4991 and the “Raw data Figure 5f” value [2] was 31.1918 and 36.3952 and 31.7379. The “Normalized data Figure 5f” value [3] was 10.8133 and 9.981 and 9.46, the “Raw data Figure 5f” value [3] was 31.4437 and 36.7806 and 28.5959 and the “Normalized data Figure 5f” value [4] was 12.5098 and 10.2311 and 12.3238. The “Raw data Figure 5f” value [4] was 36.377 and 37.7021 and 37.2539, the “Normalized data Figure 5f” value [5] was 23.9871 and 21.8452 and 18.9874 and the “Raw data Figure 5f” value [5] was 69.7518 and 80.5008 and 57.3972. For the same compound, the “Normalized data Figure 5f” value [6] was 72.8611 and 61.7154 and 72.9933, the “Raw data Figure 5f” value [6] was 211.871 and 227.425 and 220.652 and the “Normalized data Figure 5f” value [7] was 100. The “Raw data Figure 5f” value [7] was 290.788 and 368.506 and 302.291, the “Normalized data Figure 5f” value [8] was 80.3655 and 74.9934 and 84.5393 and the “Raw data Figure 5f” value [8] was 233.694 and 276.355 and 255.555. For the same compound, the “Normalized data Figure 5f” value [9] was 44.2102 and 40.566 and 46.2986, the “Raw data Figure 5f” value [9] was 128.558 and 149.488 and 139.957 and the “Normalized data Figure 5f” value [10] was 14.2742 and 12.3963 and 14.8986. For the same compound, the “Raw data Figure 5f” value [10] was 41.5078 and 45.6809 and 45.0373, the “Raw data … vs CBPVene-v4-LD3v1” value (CBPVene-v4-LD3v1, Venetoclax 0.01 nM) was 13.3313 and 13.792 and 13.1319 and the “Normalized data Figure 5c” value [11] was 19.7956 and 13.458 and 12.3801. The “Raw data Figure 5c” value [11] was 19.1053 and 16.682 and 17.9097, the “Raw data … vs CBPVene-v4-LD3v1” value [11] was 12.6379 and 12.8648 and 13.2123 and the “Normalized data Figure 5c” value [12] was 17.4061 and 14.8696 and 11.4945. The “Raw data Figure 5c” value [12] was 16.7992 and 18.4317 and 16.6285, the “Raw data … vs CBPVene-v4-LD3v1” value [12] was 10.9947 and 13.5809 and 10.4154 and the “Normalized data Figure 5c” value (CBPVene-v4-LD3v1, Venetoclax 10 nM) was 20.3471 and 18.6998 and 14.8112.
